Results from ChEMBL document CHEMBL1201862, “PubChem BioAssay data set” (2004).
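Briefly, cells in 96-well plates were exposed to five compound concentrations for 48 h, and endpoints were estimated by linear interpolation. GI50 = concentration required for 50% inhibition of growth.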 Active and inactive are the calls of the source. Rule as the data show it: active = GI50 up to about 1.1 µM and inactive = higher.

Key:
Test in all cases: NCI tumour cell line growth inhibition, 48 h
A498 = tested on: A498
BT-549 = tested on: BT-549
CAKI-1 = tested on: CAKI-1
COLO 205 = tested on: COLO 205
HL-60 = tested on: HL-60
IGROV-1 = tested on: IGROV-1
K562 = tested on: K562
MCF7 = tested on: MCF7
MDA-MB-231 = tested on: MDA-MB-231
MDA-MB-435 = tested on: MDA-MB-435
Malme-3M = tested on: Malme-3M
NCI-H522 = tested on: NCI-H522
OVCAR-4 = tested on: OVCAR-4
PC-3 = tested on: PC-3
SF-295 = tested on: SF-295
SF-539 = tested on: SF-539
SNB-75 = tested on: SNB-75
SR = tested on: SR
T47D = tested on: T47D
MDA-N = tested on: MDA-N

Row | Structure (SMILES) | GI50 (A498) | GI50 (BT-549) | GI50 (CAKI-1) | GI50 (COLO 205) | GI50 (HL-60) | GI50 (IGROV-1) | GI50 (K562) | GI50 (MCF7) | GI50 (MDA-MB-231) | GI50 (MDA-MB-435) | GI50 (Malme-3M) | GI50 (NCI-H522) | GI50 (OVCAR-4) | GI50 (PC-3) | GI50 (SF-295) | GI50 (SF-539) | GI50 (SNB-75) | GI50 (SR) | GI50 (T47D) | GI50 (MDA-N)
1 | Cc1ccc(SC2=C(N(C)C)C(=O)c3ccccc3C2=O)cc1 | 15.9 µM (inactive) | 6.43 µM (inactive) | 1.53 µM (inactive) | 20.8 µM (inactive) | 0.38 µM (active) | 4.95 µM (inactive) | 0.383 µM (active) | 2.31 µM (inactive) | 4.24 µM (inactive) | 0.444 µM (active) | 4.83 µM (inactive) | 1.22 µM (inactive) | 4.06 µM (inactive) | 4.11 µM (inactive) | 11.5 µM (inactive) | 2.79 µM (inactive) | 12.1 µM (inactive) | 0.631 µM (active) | 3.35 µM (inactive) | –
2 | O=c1[nH]c(=O)n([C@@H]2O[C@H](CO)[C@@H](O)[C@@H]2F)cc1I [FIALURIDINE] | 59.4 µM (inactive) | 39.2 µM (inactive) | > 100 µM (inactive) | > 100 µM (inactive) | > 100 µM (inactive) | > 100 µM (inactive) | > 100 µM (inactive) | 67.6 µM (inactive) | > 100 µM (inactive) | > 100 µM (inactive) | > 100 µM (inactive) | > 100 µM (inactive) | > 100 µM (inactive) | – | > 100 µM (inactive) | > 100 µM (inactive) | > 100 µM (inactive) | – | > 100 µM (inactive) | > 100 µM (inactive)
3 | COc1cc(/C=C/C(C)=O)ccc1OP(=O)(O)O | > 100 µM (inactive) | > 100 µM (inactive) | > 100 µM (inactive) | > 100 µM (inactive) | – | > 100 µM (inactive) | – | > 100 µM (inactive) | > 100 µM (inactive) | > 100 µM (inactive) | > 100 µM (inactive) | > 100 µM (inactive) | > 100 µM (inactive) | > 100 µM (inactive) | > 100 µM (inactive) | > 100 µM (inactive) | > 100 µM (inactive) | – | – | > 100 µM (inactive)
4 | CC1(C(=O)O)C[C@](C)(C(=O)OCc2ccccc2)C[C@](C)(C(=O)OCc2ccccc2)C1 (some centres undefined) | – | 26.5 µM (inactive) | 25.4 µM (inactive) | 18.5 µM (inactive) | 22.4 µM (inactive) | 22.8 µM (inactive) | 37 µM (inactive) | 34.1 µM (inactive) | – | 40.5 µM (inactive) | 63.2 µM (inactive) | 21.6 µM (inactive) | 39.8 µM (inactive) | 26.2 µM (inactive) | 21.2 µM (inactive) | 25.8 µM (inactive) | 13.7 µM (inactive) | 29.1 µM (inactive) | 35.2 µM (inactive) | 36 µM (inactive)
5 | COC(=O)C1=C(C)NC(C)=C(C(=O)OC)C1c1nc2sccn2c1[N+](=O)[O-] | > 100 µM (inactive) | > 100 µM (inactive) | > 100 µM (inactive) | > 100 µM (inactive) | > 100 µM (inactive) | – | > 100 µM (inactive) | > 100 µM (inactive) | > 100 µM (inactive) | > 100 µM (inactive) | – | – | > 100 µM (inactive) | > 100 µM (inactive) | > 100 µM (inactive) | 77.3 µM (inactive) | > 100 µM (inactive) | > 100 µM (inactive) | > 100 µM (inactive) | –
6 | C/C(=C\CSCC(N)C(=O)O)CC/C=C(\C)CNc1ccccc1 (centres undefined) | – | 64.1 µM (inactive) | > 100 µM (inactive) | > 100 µM (inactive) | > 100 µM (inactive) | > 100 µM (inactive) | > 100 µM (inactive) | > 100 µM (inactive) | > 100 µM (inactive) | > 100 µM (inactive) | > 100 µM (inactive) | 49 µM (inactive) | > 100 µM (inactive) | > 100 µM (inactive) | > 100 µM (inactive) | > 100 µM (inactive) | > 100 µM (inactive) | > 100 µM (inactive) | > 100 µM (inactive) | –
7 | CC1(C)CC(=O)C2=C(C1)NC1=C(C2)C(=O)CC(C)(C)C1 | > 100 µM (inactive) | > 100 µM (inactive) | > 100 µM (inactive) | > 100 µM (inactive) | > 100 µM (inactive) | > 100 µM (inactive) | > 100 µM (inactive) | > 100 µM (inactive) | > 100 µM (inactive) | > 100 µM (inactive) | > 100 µM (inactive) | – | > 100 µM (inactive) | > 100 µM (inactive) | > 100 µM (inactive) | > 100 µM (inactive) | > 100 µM (inactive) | > 100 µM (inactive) | – | > 100 µM (inactive)
8 | CC(C)OC(=O)C1(C(C)C)CCc2ccc(C(=O)CCC(=O)O)cc21 (centres undefined) | – | > 100 µM (inactive) | > 100 µM (inactive) | > 100 µM (inactive) | > 100 µM (inactive) | > 100 µM (inactive) | > 100 µM (inactive) | > 100 µM (inactive) | > 100 µM (inactive) | – | > 100 µM (inactive) | > 100 µM (inactive) | > 100 µM (inactive) | > 100 µM (inactive) | > 100 µM (inactive) | > 100 µM (inactive) | > 100 µM (inactive) | > 100 µM (inactive) | > 100 µM (inactive) | > 100 µM (inactive)
9 | FC(F)(F)c1cccc(COCCN2CCN(Cc3cccc(C(F)(F)F)c3)CC2)c1 | 14.9 µM (inactive) | 15.6 µM (inactive) | 17.5 µM (inactive) | 15.7 µM (inactive) | 36.6 µM (inactive) | 15.6 µM (inactive) | 11.8 µM (inactive) | 15.7 µM (inactive) | 19.3 µM (inactive) | – | 8.09 µM (inactive) | 13 µM (inactive) | 17.7 µM (inactive) | 9.33 µM (inactive) | 19.7 µM (inactive) | 18 µM (inactive) | 13.5 µM (inactive) | 23.4 µM (inactive) | 16.3 µM (inactive) | 15.9 µM (inactive)
10 | C(=N\c1ccc(-c2nc3ccccc3s2)cc1)/c1ccc[nH]1 | 15.7 µM (inactive) | 17.3 µM (inactive) | 22.8 µM (inactive) | 16.3 µM (inactive) | 16.5 µM (inactive) | 15.1 µM (inactive) | 20.4 µM (inactive) | – | – | 19.2 µM (inactive) | 18.2 µM (inactive) | 14.1 µM (inactive) | 23.8 µM (inactive) | 14.9 µM (inactive) | 13.3 µM (inactive) | 17.6 µM (inactive) | 22.2 µM (inactive) | 21.4 µM (inactive) | 13.4 µM (inactive) | 18 µM (inactive)
11 | CN(Cc1cnc2nc(N)nc(N)c2n1)c1ccc(C(=O)NC23CC4CC(CC(C4)C2)C3)cc1 | 53.6 µM (inactive) | 11.8 µM (inactive) | 12 µM (inactive) | 10.4 µM (inactive) | 12.2 µM (inactive) | 5.9 µM (inactive) | 1.06 µM (active) | 10.9 µM (inactive) | 14.1 µM (inactive) | 10.5 µM (inactive) | 6.85 µM (inactive) | – | – | 4.58 µM (inactive) | 4.69 µM (inactive) | – | 21.5 µM (inactive) | 12.7 µM (inactive) | 15.9 µM (inactive) | –
